Measurements reported in ChEMBL document CHEMBL4765464, “Discovery of BMS-986144, a Third-Generation, Pan-Genotype NS3/4A Protease Inhibitor for the Treatment of Hepatitis C Virus Infection” (J Med Chem, 2020).

Assays:
[1] = Inhibition of recombinant full length NS3/4A protease in Hepatitis C virus subtype 3a infected in human HuH7 cells using Ac-Asp-Glu-Asp (EDANS)-Glu-Glu-Abu-(COO) Ala-Ser-Lys (DABCYL)-NH2 as substrate by FRET assay; conditions: Huh-7
[2] = Inhibition of recombinant full length NS3/4A protease in Hepatitis C virus subtype 1a replicon infected in human HuH7 cells preincubated for 3 days followed by substrate addition and measured after 2 hrs by renilla luciferase reporter gene assay; type: cell-based; conditions: Huh-7
[3] = Inhibition of recombinant full length NS3/4A protease in Hepatitis C virus subtype 1b replicon infected in human HuH7 cells preincubated for 3 days followed by substrate addition and measured after 2 hrs by renilla luciferase reporter gene assay; type: cell-based; conditions: Huh-7
[4] = Inhibition of recombinant full length NS3/4A protease in Hepatitis C virus subtype 2a replicon infected in human HuH7 cells preincubated for 3 days followed by substrate addition and measured after 2 hrs by renilla luciferase reporter gene assay; type: cell-based; conditions: Huh-7
[5] = Inhibition of recombinant full length NS3/4A protease in Hepatitis C virus subtype 3a replicon infected in human HuH7 cells preincubated for 3 days followed by substrate addition and measured after 2 hrs by renilla luciferase reporter gene assay; type: cell-based; conditions: Huh-7
[6] = Inhibition of recombinant full length NS3/4A R155K mutant protease in Hepatitis C virus subtype 1a replicon infected in human HuH7 cells preincubated for 3 days followed by substrate addition and measured after 2 hrs by renilla luciferase reporter gene assay; type: cell-based; conditions: Huh-7
[7] = Inhibition of recombinant full length NS3/4A D168V mutant protease in Hepatitis C virus subtype 1b replicon infected in human HuH7 cells preincubated for 3 days followed by substrate addition and measured after 2 hrs by renilla luciferase reporter gene assay; type: cell-based; conditions: Huh-7
[8] = Metabolic stability in human liver microsomes assessed as half-life incubated for 5 to 45 mins in presence of NADPH by LC-MS analysis; type: ADME, Microsome; conditions: time 5-45 min
[9] = Clearance in rat at 1 mg/kg, iv; type: ADME, organism-based; conditions: in vivo
[10] = Half life in rat at 1 mg/kg, iv; type: ADME, organism-based; conditions: in vivo
[11] = AUC (0 to 24 hrs) in rat at 5 mg/kg, po; type: ADME, organism-based; set-up: time < 24 hr, route oral, dose 5 mg/kg; conditions: in vivo
[12] = Cmax in rat at 5 mg/kg, po; type: ADME, organism-based; set-up: route oral, dose 5 mg/kg; conditions: in vivo
[13] = Drug concentration in rat plasma at 5 mg/kg, po measured upto 24 hrs; type: ADME, organism-based; conditions: read-out: Ct
[14] = Drug concentration in rat liver at 5 mg/kg, po measured upto 24 hrs; type: ADME, organism-based; conditions: read-out: Ct
[15] = Ratio of drug concentration in liver to plasma in rat at 5 mg/kg, po measured upto 24 hrs; type: ADME, organism-based; conditions: liver and plasma
[16] = Oral bioavailability in rat at 5 mg/kg; type: ADME, organism-based; conditions: in vivo
[17] = Half-life in dog at 3 mg/kg, po or 1 mg/kg, iv; type: ADME, organism-based, Canis lupus familiaris; conditions: in vivo
[18] = Half-life in rat at 5 mg/kg, po or 1 mg/kg, iv; type: ADME, organism-based; conditions: in vivo
[19] = Clearance in rat at 5 mg/kg, po or 1 mg/kg, iv; type: ADME, organism-based; conditions: in vivo
[20] = AUC in rat at 5 mg/kg, po or 1 mg/kg, iv; type: ADME, organism-based; set-up: dose 5 mg/kg; conditions: in vivo
[21] = Clearance in dog at 3 mg/kg, po or 1 mg/kg, iv; type: ADME, organism-based, Canis lupus familiaris; conditions: in vivo
[22] = Oral bioavailability in dog at 3 mg/kg; type: ADME, organism-based, Canis lupus familiaris; conditions: in vivo
[23] = AUC in dog at 3 mg/kg, po or 1 mg/kg, iv; type: ADME, organism-based, Canis lupus familiaris; set-up: dose 3 mg/kg; conditions: in vivo
[24] = Drug concentration in dog plasma at 3 mg/kg, po measured upto 24 hrs; type: ADME, organism-based, Canis lupus familiaris; conditions: read-out: Ct
[25] = Half-life in cynomolgus monkey at 3 mg/kg, po or 1 mg/kg, iv; type: ADME, organism-based, Macaca fascicularis; conditions: in vivo
[26] = Clearance in cynomolgus monkey at 3 mg/kg, po or 1 mg/kg, iv; type: ADME, organism-based, Macaca fascicularis; conditions: in vivo
[27] = Oral bioavailability in cynomolgus monkey at 3 mg/kg; type: ADME, organism-based, Macaca fascicularis; conditions: in vivo
[28] = AUC in cynomolgus monkey at 3 mg/kg, po or 1 mg/kg, iv; type: ADME, organism-based, Macaca fascicularis; set-up: dose 3 mg/kg; conditions: in vivo
[29] = Drug concentration in cynomolgus monkey plasma at 3 mg/kg, po measured upto 24 hrs; type: ADME, organism-based, Macaca fascicularis; conditions: read-out: Ct
[30] = Toxicity in rat assessed as histopathological changes in liver at 100 mg/kg; type: organism-based; conditions: in vivo
[31] = Toxicity in rat assessed as increase in heart rate at 30 to 100 mg/kg; type: organism-based; conditions: in vivo, dose 30-100 mg/kg
[32] = Toxicity in rat assessed as reduction in blood pressure at 30 to 100 mg/kg; type: organism-based; conditions: in vivo, dose 30-100 mg/kg
[33] = Clearance in rat at 5 mg/kg, iv; type: ADME, organism-based; conditions: in vivo
[34] = AUC (0 to 24 hrs) in rat at 15 mg/kg, po; type: ADME, organism-based; set-up: time < 24 hr, route oral, dose 15 mg/kg; conditions: in vivo
[35] = Ratio of drug concentration in liver to plasma in rat at 15 mg/kg, po measured upto 24 hrs; type: ADME, organism-based; conditions: liver and plasma
[36] = Half life in rat at 5 mg/kg, iv; type: ADME, organism-based; conditions: in vivo
[37] = Cmax in rat at 15 mg/kg, po; type: ADME, organism-based; set-up: route oral, dose 15 mg/kg; conditions: in vivo
[38] = Drug concentration in rat plasma at 15 mg/kg, po measured upto 24 hrs; type: ADME, organism-based; conditions: read-out: Ct
[39] = Drug concentration in rat liver at 15 mg/kg, po measured upto 24 hrs; type: ADME, organism-based; conditions: read-out: Ct
[40] = Oral bioavailability in rat at 15 mg/kg; type: ADME, organism-based; conditions: in vivo
[41] = Metabolic stability in rat liver microsomes assessed as parent compound remaining after 10 mins in presence of NADPH by LC-MS analysis; type: ADME, Microsome; conditions: read-out: Stabilty
[42] = Volume of distribution in rat at 15 mg/kg, po or 5 mg/kg, iv; type: ADME, organism-based; conditions: in vivo

## CC[C@@H]1C[C@H](C)CC/C=C\[C@@H]2C[C@@]2(C(=O)NS(=O)(=O)C2(C)CC2)NC(=O)[C@@H]2C[C@@H](Oc3ncc(OC)c4ccc(F)cc34)CN2C(=O)[C@H]1NC(=O)OC(C)(C)C(F)(F)F
[1]
  IC50: 8.4 nM
[2]
  EC50: 2.3 nM
[3]
  EC50: 0.6 nM
[4]
  EC50: 2 nM
[5]
  EC50: 15 nM
[6]
  EC50: 7.6 nM
[7]
  EC50: 9 nM
[8]
  half-life: 0.717 h
[9]
  clearance: 1.2 mL/min/kg
[10]
  half-life: 7.9 h
[11]
  AUC(0-t) at 24 h: 32.5 µM·h
[12]
  Cmax: 3610 nM
[13]
  concentration at 24 h: 422 nM
[14]
  concentration at 24 h: 2070 nM
[15]
  Kp at 24 h: 5
[16]
  bioavailability: 47%
[17]
  half-life: 11.3 h
[18]
  half-life: 7.9 h
[19]
  clearance: 1.2 mL/min/kg
[20]
  AUC: 37 µM·h
[21]
  clearance: 0.6 mL/min/kg
[22]
  bioavailability: 67%
[23]
  AUC: 71 µM·h
[24]
  concentration at 24 h: 709 nM
[25]
  half-life: 2.8 h
[26]
  clearance: 5.5 mL/min/kg
[27]
  bioavailability: 28%
[28]
  AUC: 2.9 µM·h
[29]
  concentration at 24 h: 13 nM
[30]
  Activity: Non-Toxic
[31]
  Activity: Toxic
[32]
  Activity: Toxic

## COc1cnc(O[C@@H]2C[C@H]3C(=O)N[C@]4(C(=O)NS(=O)(=O)C5CC5)C[C@H]4/C=C\CC[C@@H](C)C[C@@H](C)[C@H](NC(=O)OC(C)(C)C(F)(F)F)C(=O)N3C2)c2ccccc12
[1]
  IC50: 0.9 nM
[2]
  EC50: 0.5 nM
[3]
  EC50: 0.5 nM
[4]
  EC50: 0.8 nM
[5]
  EC50: 2 nM
[6]
  EC50: 2.2 nM
[7]
  EC50: 5.5 nM
[8]
  half-life: 0.198 h
[33]
  clearance: 4.2 mL/min/kg
[34]
  AUC(0-t) at 24 h: 11.7 µM·h
[35]
  Kp at 24 h: 34
[36]
  half-life: 2.7 h
[37]
  Cmax: 1780 nM
[38]
  concentration at 24 h: 14 nM
[39]
  concentration at 24 h: 480 nM
[40]
  bioavailability: 15%
[41]
  remaining at 10 min: 95%
[42]
  Vd: 0.58 L/kg
